According to paper PMC11087982, “In vitro and in vivo activities of a trithiolato-diRuthenium complex conjugated with sulfadoxine against the apicomplexan parasite Toxoplasma gondii” (International Journal for Parasitology: Drugs and Drug …, 2024):
pIC50: −log10 of the molar value. Entries after “also recorded” stand apart in the source; their conditions may differ.

Columns and labels:
[1] = Formulation of the compound for oral gavage (precipitation); format: physicochemical; conditions: compared with 5 mg/kg in corn oil containing 10% DMSO; data not shown
Procedure: A preliminary in vivo study was conducted in outbred CD1 mice that were experimentally infected with TgShSp1 oocysts.

[2] = system: T. gondii β-gal tachyzoites; assay: T. gondii β-Gal tachyzoite proliferation in HFF monolayers (β-galactosidase fluorometric assay); format: cell-based, Toxoplasma gondii
Procedure: Effects of drugs on the proliferative capacity of T. gondii tachyzoites were investigated using a transgenic T. gondii RH strain constitutively expressing β-Galactosidase (T. gondii β-Gal ([Dc et al., 1997]);). Assays were carried out in 96 well plates in the presence or absence of the different compounds. For the quantification of β-Galactosidase activity, a fluorometric assay was applied as previously described ([Desiatkina et al., 2021]; [Păunescu et al., 2021]).

[3] = system: T. gondii Me49 tachyzoites; assay: Transmission electron microscopy of treated tachyzoites in HFF; format: cell-based, Toxoplasma gondii; conditions: 0.5 μM, 6 h of treatment
Procedure: We examined the cellular ultrastructure of T. gondii tachyzoites treated with RU-SDX by TEM as described previously ([Anghel et al., 2021]; [Desiatkina et al., 2020]). Briefly, confluent HFF grown in T25 flasks were infected with 10^5 T. gondii Me49 tachyzoites, and infected cultures were maintained for 24 h at 37 °C/5% CO2. Subsequently, the medium was removed and medium containing 0.5 μM RU-SDX or 0.05% DMSO (as solvent control) was added, and cultures were maintained at 37 °C/5% CO2 during 6, 24 or 48 h. At the different timepoints the samples were fixed and processed for TEM ([Anghel et al., 2021]; [Desiatkina et al., 2020]). For this, cultures were washed with 0.1 M sodium cacodylate buffer (pH 7.3) and fixed in 2% glutaraldehyde in cacodylate buffer for 10 min at room temperature (RT). The fixed infected monolayers were gently scraped from the flasks, transferred into Eppendorf tubes, washed with in ice-cold 0.1 M sodium cacodylate buffer and fixed in 2% glutaraldehyde in cacodylate buffer for 2 h at RT. Further preparation steps included post-fixation in 2% osmium tetroxide, pre-staining, stepwise dehydration in ethanol, and embedding in Epon-812 resin. In some instances, T25 flasks containing HFF monolayers infected with T. gondii Me49 tachyzoites were treated with FCCP and CCCP for 10 min at 80 and 50 μM, respectively, and samples were prepared for TEM as described above. […]

[4] = system: T. gondii-infected HFF; assay: TMRE uptake assay (mitochondrial membrane potential), T. gondii-infected HFF; format: cell-based, Toxoplasma gondii Me49 in human HFF; conditions: 0.5 μM, 3.5 h
Procedure: (§1) 5 × 10^5 HFF were seeded into T25 culture flasks in DMEM complete medium and maintained in culture for 72 h to reach ⁓80% confluency. HFF monolayers were left either non-infected or were infected with 2 × 10^5 T. gondii Me49 tachyzoites. After another 48 h, the medium was removed from infected and non-infected T25 flasks and was replaced either by medium containing 0.5 μM RU-SDX, or in the case of non-treated controls, medium containing 0.05% DMSO. As positive controls, the two mitochondrial uncouplers FCCP and CCCP were applied at a concentration of 80 and 50 μM, respectively. PYR was applied at 0.5 μM as a control drug not affecting the MMP, and RU-adenine, used as a conjugate shown earlier to impact on the mitochondrial ultrastructure in T. gondii ([Anghel et al., 2021]; [Desiatkina et al., 2022b]), was also tested at 0.5 μM ([Anghel et al., 2021]; [Desiatkina et al., 2022b]). […] Fluorescence was measured using a Hidex Sense microplate reader instrument ([…]) with the excitation wavelength 544/20 nm and emitted light collected at 590/20 nm. Value from wells belonging to the same experimental condition were summed and the mean TMRE uptake in each condition was calculated from three biological replicates.

[5] = system: T. gondii Me49 tachyzoites; assay: Long-term treatment of infected HFF to test static or cidal effect; format: cell-based, Toxoplasma gondii; conditions: 0.5 μM
Procedure: On day 0, the HFF monolayers were infected with 5 × 10^5 T. gondii Me49 tachyzoites. At 4 h post infection (p.i.) the medium was removed, flasks were washed twice with sterile PBS and fresh medium containing either RU-SDX at 0.25 μM or 0.5 μM, or DMSO (0.05%) as a negative control, were added. Treatments were applied during 3 and 6 days and cultures were maintained in normal DMEM complete media and examined light microscopically daily. After drug removal, flasks were also monitored microscopically daily for one week.

[6] = system: Non-infected HFF; assay: TMRE uptake assay (mitochondrial membrane potential), non-infected HFF; format: cell-based, human; conditions: 0.5 μM, 3.5 h
Procedure: as §1

For `CC(C)(C)c1ccc(C[S-])cc1.CC(C)(C)c1ccc(C[S-])cc1.COc1ncnc(NS(=O)(=O)c2ccc(NC(=O)Cc3ccc([S-])cc3)cc2)c1OC.Cc1ccc(C(C)C)cc1.Cc1ccc(C(C)C)cc1.[Cl-].[Ru+2].[Ru+2]` [RU-SDX], the “behaviour at higher concentrations or in other vehicles (PBS ± DMSO, H2O ± DMSO, H2O + propane-1,2-diol)” value [1] was “precipitation”, the “T. gondii proliferation in relation to the non-treated control” value ([2]; 0.1 μM) was 77% and the “T. gondii proliferation in relation to the non-treated control” value ([2]; 1 μM) was 2%. For the same molecule, the “proliferation (% of control ± SD)” value ([2]; 2.5 μM) was “^∗∗∗0 ± 0%”, the “proliferation (% of control ± SD)” value ([2]; 5 μM) was “^∗∗∗0 ± 0%” and the pIC50 ([2]; drug treatment applied concomitantly to infection of HFF monolayers) was 6.95. The pIC50 ([2]; drug treatment initiated 3 h post infection, 95% CI in brackets) was 6.84, the pIC50 ([2]; drug treatment initiated concomitantly to infection, 95% CI in brackets) was 6.95 and the pIC50 ([2]; drug treatment on already infected HFF) was 6.84. For the same molecule, the pIC50 ([2]; tachyzoites grown in HFF monolayers, drug added concomitantly to or after infection) was greater than 6.82, the “ultrastructural changes in tachyzoites (TEM)” value [3] was “mitochondrial matrix appeared to have lost its characteristic electron dense texture in many areas” and the “TMRE fluorescence intensity / TMRE uptake (percentage of non-treated control = 100%)” value [4] was 130%. The “parasiticidal or parasitostatic action in vitro” value ([5]; 3 and 6 days treatment) was “parasitostatic but not parasiticidal; also recorded: did not act parasiticidal”, the “tachyzoite re-emergence after removal of the drug” value ([5]; 6 days of continuous treatment, then culture without compound) was no more than 4 days and the “TMRE fluorescence intensity / TMRE uptake (percentage of non-treated control = 100%)” value [6] was 140%.
